Assay results from US20060167229A1, “Biologically active peptide conjugates” (priority 2002, published 2006).
Entries after “also recorded” stand apart in the source; their conditions may differ. Marks after values point to notes of the source that are not given here. Ends that are not written are not given here.

Experiments:
Type in all cases: in vivo, BALB/c mice
[1] = system: NK cell; experiment: NK cell cytotoxicity activity test (spleen cells of treated mice against YAC-1 target cells, MTT); conditions: for NK cell cytotoxic activity, X ± SD (%): healthy mice; for effect on the cytotoxic activity of NK cells (summary): statistically significant difference from saline in any of the dosage groups 0.5-500 μg/kg/day
Outline: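 Mice (10 per group) dosed i.p. once daily for 15 days in saline; spleen cells harvested the next day. Splenocytes (4×10^6/ml) co-cultured with YAC-1 targets (1×10^5/ml), in triplicate per mouse. Viability by MTT (1 mg/ml, 4 h, 37 °C), read at OD570 against 630 nm.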

[2] = system: anti-SRBC antibody; experiment: Sheep Red Blood Cell (SRBC) hemolysis test, antibody formation; conditions: for anti-SRBC antibody formation, X ± SD (Unit): healthy mice, SRBC day 12 (IFN-γ, IL-2 3×10^5 IU/kg/day), saline 32 ± 7; for effect on the synthesis of anti-SRBC antibody upon the antigenic challenge (summary): statistically significant difference from saline in any of the dosage groups 0.5-500 μg/kg/day
Outline: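 Mice immunized intraperitoneally with 0.2 ml SRBC on day 12; serum taken on day 16, diluted 500-fold. Serum incubated with 2% SRBC and guinea pig complement 10 min at 37° C; released haemoglobin read at OD540 with Drabkin solution. Serum index = (sample OD540 ÷ reference OD540) × 500.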

[3] = system: mononuclear phagocyte; experiment: Carbon particle clearance test, phagocytosis function; set-up: key to X ± SD (phagocytotic index): α = cube root of K × (body weight ÷ liver+spleen weight); conditions: for X ± SD (phagocytotic index): healthy mice, saline 5.1 ± 0.6; for effect on the phagocytotic activity of mononuclear phagocyte (summary): statistically significant difference from saline in any of the dosage groups 0.5-500 μg/kg/day
Outline: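 Clearance index K came from OD680 of blood sampled 1 and 5 min after tail-vein India ink ([…], diluted 5×), given on day 16. Phagocytic index α combined K with liver, spleen […] weights taken the same day.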

[4] = system: thymus gland; experiment: Immunity organ weight test, thymus gland index; conditions: for weight of thymus gland (thymus gland index), X ± SD (%): healthy mice, saline 0.12 ± 0.02; for effect on the weight of the thymus gland (summary): statistically significant difference from saline in any of the dosage groups 0.5-500 μg/kg/day
Description: (§1) One day after the last test substance administration (day 16), the liver, spleen, and thymus gland were separated and blotted dry with filter paper and weighed. The phagocytosis index α was calculated as below: α=(^3√{square root over ( )}K)(W÷WLS)
Thymus gland index (%)=(thymus weight/body weight)×100%

[5] = system: spleen; experiment: Immunity organ weight test, spleen index; conditions: for weight of spleen (spleen index), X ± SD (%): healthy mice, saline 0.53 ± 0.05; for effect on the weight of the spleen (summary): statistically significant difference from saline in any of the dosage groups 0.5-500 μg/kg/day
Description: as §1
Spleen index (%)=(spleen weight/body weight)×100%

[6] = peptide 500 μg/kg/day i.p. 15 days (IFN-γ, IL-2 3×10^5 IU/kg/day), saline 63 ± 9
[7] = peptide 5 μg/kg/day i.p. 15 days
[8] = peptide 500 μg/kg/day i.p. 15 days
[9] = peptide 5 μg/kg/day i.p. 15 days (IFN-γ, IL-2 3×10^5 IU/kg/day)
[10] = peptide 50 μg/kg/day i.p. 15 days (IFN-γ, IL-2 3×10^5 IU/kg/day)
[11] = peptide 500 μg/kg/day i.p. 15 days (IFN-γ, IL-2 3×10^5 IU/kg/day)
[12] = peptide 0.5 μg/kg/day i.p. 15 days (IFN-γ, IL-2 3×10^5 IU/kg/day), saline 58 ± 7
[13] = peptide 5 μg/kg/day i.p. 15 days (IFN-γ, IL-2 3×10^5 IU/kg/day), saline 60 ± 9
[14] = peptide 50 μg/kg/day i.p. 15 days (IFN-γ, IL-2 3×10^5 IU/kg/day), saline 56 ± 8
[15] = peptide 50 μg/kg/day i.p. 15 days
[16] = peptide 0.5 μg/kg/day i.p. 15 days (IFN-γ, IL-2 3×10^5 IU/kg/day)
[17] = peptide 0.5 μg/kg/day i.p. 15 days

Substance: IGMESAGIHETTY [CMS016]
- NK cell cytotoxic activity, X ± SD (%) [1, 6]: 91 ± 7*^@^ %
- effect on the cytotoxic activity of NK cells (summary) [1]: increase
- anti-SRBC antibody formation, X ± SD (Unit) [2, 7]: 93 ± 32*^@ Unit
- anti-SRBC antibody formation, X ± SD (Unit) [2, 8]: 143 ± 38*^@^ Unit
- effect on the synthesis of anti-SRBC antibody upon the antigenic challenge (summary) [2]: enhance
- X ± SD (phagocytotic index) [3, 9]: 6.9 ± 0.8*^
- effect on the phagocytotic activity of mononuclear phagocyte (summary) [3]: enhance
- weight of thymus gland (thymus gland index), X ± SD (%) [4, 9]: 0.22 ± 0.06 %
- weight of thymus gland (thymus gland index), X ± SD (%) [4, 10]: 0.20 ± 0.03*^@^ %
- weight of thymus gland (thymus gland index), X ± SD (%) [4, 11]: 0.18 ± 0.05 %
- effect on the weight of the thymus gland (summary) [4]: increase

Substance: LGMQACGIHETTY [CMS012]
- NK cell cytotoxic activity, X ± SD (%) [1, 12]: 77 ± 6 %
- NK cell cytotoxic activity, X ± SD (%) [1, 13]: 85 ± 7 %
- NK cell cytotoxic activity, X ± SD (%) [1, 14]: 40 ± 9 %
- anti-SRBC antibody formation, X ± SD (Unit) [2, 7]: 81 ± 22*^@ Unit
- anti-SRBC antibody formation, X ± SD (Unit) [2, 15]: 50 ± 14 Unit
- anti-SRBC antibody formation, X ± SD (Unit) [2, 8]: 141 ± 21*^@^ Unit
- effect on the synthesis of anti-SRBC antibody upon the antigenic challenge (summary) [2]: enhance
- weight of thymus gland (thymus gland index), X ± SD (%) [4, 16]: 0.22 ± 0.06*^ %
- weight of thymus gland (thymus gland index), X ± SD (%) [4, 9]: 0.27 ± 0.06*^@^ %
- weight of thymus gland (thymus gland index), X ± SD (%) [4, 10]: 0.26 ± 0.02*^@^ %
- effect on the weight of the thymus gland (summary) [4]: increase

Substance: PTTKTYFPHF [CMS001]
- NK cell cytotoxic activity, X ± SD (%) [1, 14]: 85 ± 10 %
- effect on the cytotoxic activity of NK cells (summary) [1]: increase
- anti-SRBC antibody formation, X ± SD (Unit) [2, 7]: 110 ± 24*^@ Unit
- effect on the synthesis of anti-SRBC antibody upon the antigenic challenge (summary) [2]: enhance
- weight of thymus gland (thymus gland index), X ± SD (%) [4, 9]: 0.22 ± 0.05 %
- effect on the weight of the thymus gland (summary) [4]: increase
- weight of spleen (spleen index), X ± SD (%) [5, 16]: 0.40 ± 0.05 %
- weight of spleen (spleen index), X ± SD (%) [5, 8]: 0.43 ± 0.07 %
- effect on the weight of the spleen (summary) [5]: decrease

Substance: Phe Gln Gln Gln (FQQQ; printed: Phe Gln Gln Gln) [CMS032]
- NK cell cytotoxic activity, X ± SD (%) [1, 6]: 87 ± 5 %
- effect on the cytotoxic activity of NK cells (summary) [1]: increase
- anti-SRBC antibody formation, X ± SD (Unit) [2, 7]: 157 ± 37*^@^ Unit
- anti-SRBC antibody formation, X ± SD (Unit) [2, 15]: 131 ± 24*^@^ Unit
- effect on the synthesis of anti-SRBC antibody upon the antigenic challenge (summary) [2]: enhance
- weight of thymus gland (thymus gland index), X ± SD (%) [4, 16]: 0.21 ± 0.06 %
- weight of thymus gland (thymus gland index), X ± SD (%) [4, 9]: 0.29 ± 0.04*^@^ %
- weight of thymus gland (thymus gland index), X ± SD (%) [4, 10]: 0.27 ± 0.03*^@^ %
- weight of thymus gland (thymus gland index), X ± SD (%) [4, 11]: 0.25 ± 0.03*^@^ %
- effect on the weight of the thymus gland (summary) [4]: increase

Substance: Phe Val Asn Asp (FVND; listed as Sus scrofa) [CMS035]
- NK cell cytotoxic activity, X ± SD (%) [1, 12]: 76 ± 10 %
- NK cell cytotoxic activity, X ± SD (%) [1, 14]: 72 ± 9 %
- NK cell cytotoxic activity, X ± SD (%) [1, 6]: 90 ± 10 %
- effect on the cytotoxic activity of NK cells (summary) [1]: increase
- anti-SRBC antibody formation, X ± SD (Unit) [2, 7]: 176 ± 39*^@^ Unit
- anti-SRBC antibody formation, X ± SD (Unit) [2, 15]: 97 ± 10*^@^ Unit
- anti-SRBC antibody formation, X ± SD (Unit) [2, 8]: 88 ± 16*^@ Unit
- effect on the synthesis of anti-SRBC antibody upon the antigenic challenge (summary) [2]: enhance
- X ± SD (phagocytotic index) [3, 9]: 6.9 ± 0.9*^
- effect on the phagocytotic activity of mononuclear phagocyte (summary) [3]: enhance
- weight of thymus gland (thymus gland index), X ± SD (%) [4, 9]: 0.21 ± 0.04 %
- weight of thymus gland (thymus gland index), X ± SD (%) [4, 11]: 0.21 ± 0.03*^@^ %
- effect on the weight of the thymus gland (summary) [4]: increase

Substance: Pro Gln Asn Phe (PQNF; printed: Pro Gln Asn Phe) [CMS034]
- NK cell cytotoxic activity, X ± SD (%) [1, 13]: 90 ± 5 %
- NK cell cytotoxic activity, X ± SD (%) [1, 6]: 85 ± 9 %
- effect on the cytotoxic activity of NK cells (summary) [1]: increase
- anti-SRBC antibody formation, X ± SD (Unit) [2, 17]: 20 ± 2 Unit
- anti-SRBC antibody formation, X ± SD (Unit) [2, 7]: 172 ± 37*^@^ Unit
- anti-SRBC antibody formation, X ± SD (Unit) [2, 15]: 136 ± 11*^@^ Unit
- effect on the synthesis of anti-SRBC antibody upon the antigenic challenge (summary) [2]: enhance; also recorded: inhibit
- weight of thymus gland (thymus gland index), X ± SD (%) [4, 9]: 0.27 ± 0.06*^@^ %
- weight of thymus gland (thymus gland index), X ± SD (%) [4, 10]: 0.19 ± 0.04*^ %
- weight of thymus gland (thymus gland index), X ± SD (%) [4, 11]: 0.20 ± 0.05*^ %
- effect on the weight of the thymus gland (summary) [4]: increase

Substance: Pro Ser Ile Vat Gly Arg Pro Arg His Gln Gly Val Met (PSIVGRPRHQGVM; listed as Sus scrofa) [CMS015]
- NK cell cytotoxic activity, X ± SD (%) [1, 14]: 78 ± 8 %
- effect on the cytotoxic activity of NK cells (summary) [1]: increase
- anti-SRBC antibody formation, X ± SD (Unit) [2, 17]: 13 ± 4 Unit
- anti-SRBC antibody formation, X ± SD (Unit) [2, 7]: 94 ± 37*^@ Unit
- anti-SRBC antibody formation, X ± SD (Unit) [2, 15]: 54 ± 9*^@ Unit
- anti-SRBC antibody formation, X ± SD (Unit) [2, 8]: 136 ± 22*^@^ Unit
- effect on the synthesis of anti-SRBC antibody upon the antigenic challenge (summary) [2]: enhance; also recorded: inhibit
- weight of thymus gland (thymus gland index), X ± SD (%) [4, 9]: 0.20 ± 0.08 %
- effect on the weight of the thymus gland (summary) [4]: increase
- weight of spleen (spleen index), X ± SD (%) ([5]; Table 30, peptide 5 μg/kg/day i.p. 15 days): 0.38 ± 0.15 %
- weight of spleen (spleen index), X ± SD (%) [5, 8]: 0.36 ± 0.07 %
- effect on the weight of the spleen (summary) [5]: decrease

Substance: Tyr Ser Phe (YSF; listed as Sus scrofa) [CMS022]
- NK cell cytotoxic activity, X ± SD (%) [1, 12]: 73 ± 11 %
- effect on the cytotoxic activity of NK cells (summary) [1]: increase
- anti-SRBC antibody formation, X ± SD (Unit) [2, 15]: 110 ± 16*^@^ Unit
- anti-SRBC antibody formation, X ± SD (Unit) [2, 8]: 68 ± 31*^@ Unit
- effect on the synthesis of anti-SRBC antibody upon the antigenic challenge (summary) [2]: enhance
- X ± SD (phagocytotic index) [3, 11]: 7.4 ± 0.6*^@^
- effect on the phagocytotic activity of mononuclear phagocyte (summary) [3]: enhance
- weight of thymus gland (thymus gland index), X ± SD (%) [4, 16]: 0.21 ± 0.06 %
- weight of thymus gland (thymus gland index), X ± SD (%) [4, 9]: 0.25 ± 0.04*^@^ %
- weight of thymus gland (thymus gland index), X ± SD (%) [4, 10]: 0.30 ± 0.03*^@^ %
- weight of thymus gland (thymus gland index), X ± SD (%) [4, 11]: 0.26 ± 0.05*^@^ %
- effect on the weight of the thymus gland (summary) [4]: increase
